Laboratory results taken from patent publication US12637480B2, “Heterocyclic compounds as sting modulators” (BEIGENE, LTD., priority 2020, dated 2026).
Structures can show the parent of a compound that is named as a salt.

Columns and labels:
[1] = molecular target: human STING (hSTING) R232 variant in THP1-Dual KI-hSTING-R232 Cells (Homo sapiens, UniProt Q86WV6, H232R); assay: STING cellular assay in THP1-Dual KI-hSTING-R232 cells (ISG54 Lucia luciferase reporter, QUANTI-Luc)
[2] = molecular target: human STING (hSTING) HAQ variant in THP1-Dual HAQ Cells (Homo sapiens, UniProt Q86WV6, G230A/H232R/R293Q/R71H); assay: STING cellular assay in THP1-Dual HAQ cells (ISG54 Lucia luciferase reporter, QUANTI-Luc)
Chain of human STING (hSTING) HAQ variant in THP1-Dual HAQ Cells (Q86WV6 whole entry R71H/G230A/H232R/R293Q): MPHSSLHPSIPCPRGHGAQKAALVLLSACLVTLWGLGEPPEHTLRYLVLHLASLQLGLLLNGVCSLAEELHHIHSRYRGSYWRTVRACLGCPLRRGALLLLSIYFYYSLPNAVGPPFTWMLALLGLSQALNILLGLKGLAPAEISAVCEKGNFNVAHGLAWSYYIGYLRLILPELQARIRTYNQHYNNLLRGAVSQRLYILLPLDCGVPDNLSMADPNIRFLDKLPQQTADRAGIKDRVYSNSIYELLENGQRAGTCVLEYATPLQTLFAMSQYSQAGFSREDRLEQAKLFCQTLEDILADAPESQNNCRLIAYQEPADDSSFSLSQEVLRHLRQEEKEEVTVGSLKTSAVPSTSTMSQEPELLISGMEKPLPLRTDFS

Chain of human STING (hSTING) R232 variant in THP1-Dual KI-hSTING-R232 Cells (Q86WV6 whole entry H232R): as the sequence (Q86WV6 whole entry R71H/G230A/H232R/R293Q) above, with H71R, A230G, Q293R counted along it

SMILES | EC50 [1] [nM] | EC50 [2] [nM]
CCn1nc(C)cc1C(=O)Nc1nc2cc(C(N)=O)cnc2n1C/C=C/Cn1c2nc(-c3cc(C)nn3CC)ncc2c2cc(C(N)=O)cc(OCCCN(C)C(=O)OC(C)(C)C)c21 [Example 1-AA] | 0.58 | 3.4
CCn1nc(C)cc1C(=O)Nc1nc2cc(C(N)=O)cnc2n1C/C=C/Cn1c2nc(-c3cc(C)nn3CC)ncc2c2cc(C(N)=O)cc(OCCCNC)c21 [Example 1-AB, (E)-9-(4-(6-carbamoyl-2-(1-ethyl-3-methyl-1H-pyrazole-5-carboxamido)-3H-imidazo[4,5-b]pyridin-3-yl)but-2-en-1-yl)-2-(1-ethyl-3-methyl-1H-pyrazol-5-yl)-8-(3-(methylamino)propoxy)-9H-pyrimido[4,5-b]indole-6-carboxamide] | 6.2 | 355
CCn1nc(C)cc1C(=O)Nc1nc2cc(C(N)=O)cnc2n1C/C=C/Cn1c2nc(-c3cc(C)nn3CC)ncc2c2cc(C(N)=O)cc(OCCCN(C)C(=O)CON)c21 [Example 1-AC] | 3.6 | 34
CCn1nc(C)cc1C(=O)Nc1nc2cc(C(N)=O)cnc2n1C/C=C/Cn1c2nc(-c3cc(C)nn3CC)ncc2c2cc(C(N)=O)cc(OCCCN3CCN(C(=O)OC(C)(C)C)CC3)c21 [Example 2-AA, tert-butyl (E)-4-(3-((6-carbamoyl-9-(4-(6-carbamoyl-2-(1-ethyl-3-methyl-1H-pyrazole-5-carboxamido)-3H-imidazo[4,5-b]pyridin-3-yl)but-2-en-1-yl)-2-(1-ethyl-3-methyl-1H-pyrazol-5-yl)-9H-pyrimido[4,5-b]indol-8-yl)oxy)propyl)piperazine-1-carboxylate] | 0.46 | 2.4
CCn1nc(C)cc1C(=O)Nc1nc2cc(C(N)=O)cnc2n1C/C=C/Cn1c2nc(-c3cc(C)nn3CC)ncc2c2cc(C(N)=O)cc(OCCCN3CCNCC3)c21 [Example 2-AB-HCl, (E)-9-(4-(6-carbamoyl-2-(1-ethyl-3-methyl-1H-pyrazole-5-carboxamido)-3H-imidazo[4,5-b]pyridin-3-yl)but-2-en-1-yl)-2-(1-ethyl-3-methyl-1H-pyrazol-5-yl)-8-(3-(piperazin-1-yl)propoxy)-9H-pyrimido[4,5-b]indole-6-carboxamide hydrochloride] | 11 | 565
CCn1nc(C)cc1C(=O)Nc1nc2cc(C(N)=O)cnc2n1C/C=C/Cn1c2nc(-c3cc(C)nn3CC)ncc2c2cc(C(N)=O)cc(OCCCN3CCN(C(=O)CON)CC3)c21 [Example 2-AC, (E)-8-(3-(4-(2-(aminooxy)acetyl)piperazin-1-yl)propoxy)-9-(4-(6-carbamoyl-2-(1-ethyl-3-methyl-1H-pyrazole-5-carboxamido)-3H-imidazo[4,5-b]pyridin-3-yl)but-2-en-1-yl)-2-(1-ethyl-3-methyl-1H-pyrazol-5-yl)-9H-pyrimido[4,5-b]indole-6-carboxamide] | 10 | 118
CCn1nc(C)cc1C(=O)Nc1nc2cc(C(N)=O)cnc2n1C/C=C/Cn1c2nc(-c3cc(C)nn3CC)ncc2c2cc(C(N)=O)cc(OCCCCN(C)C(=O)OC(C)(C)C)c21 [Example 3-AA, tert-butyl (E)-(4-((6-carbamoyl-9-(4-(6-carbamoyl-2-(1-ethyl-3-methyl-1H-pyrazole-5-carboxamido)-3H-imidazo[4,5-b]pyridin-3-yl)but-2-en-1-yl)-2-(1-ethyl-3-methyl-1H-pyrazol-5-yl)-9H-pyrimido[4,5-b]indol-8-yl)oxy)butyl)(methyl)carbamate] | 0.52 | 4.1
CCn1nc(C)cc1C(=O)Nc1nc2cc(C(N)=O)cnc2n1C/C=C/Cn1c2nc(-c3cc(C)nn3CC)ncc2c2cc(C(N)=O)cc(OCCCCNC)c21 [Example 3-AB-HCl, (E)-9-(4-(6-carbamoyl-2-(1-ethyl-3-methyl-1H-pyrazole-5-carboxamido)-3H-imidazo[4,5-b]pyridin-3-yl)but-2-en-1-yl)-2-(1-ethyl-3-methyl-1H-pyrazol-5-yl)-8-(4-(methylamino)butoxy)-9H-pyrimido[4,5-b]indole-6-carboxamide hydrochloride] | 23 | 640
CCn1nc(C)cc1C(=O)Nc1nc2cc(C(N)=O)cnc2n1C/C=C/Cn1c2nc(-c3cc(C)nn3CC)ncc2c2cc(C(N)=O)cc(OCCC3CN(C(=O)OC(C)(C)C)C3)c21 [Example 4-AA, tert-butyl (E)-3-(2-((6-carbamoyl-9-(4-(6-carbamoyl-2-(1-ethyl-3-methyl-1H-pyrazole-5-carboxamido)-3H-imidazo[4,5-b]pyridin-3-yl)but-2-en-1-yl)-2-(1-ethyl-3-methyl-1H-pyrazol-5-yl)-9H-pyrimido[4,5-b]indol-8-yl)oxy)ethyl)azetidine-1-carboxylate] | 0.78 | 4.8
CCn1nc(C)cc1C(=O)Nc1nc2cc(C(N)=O)cnc2n1C/C=C/Cn1c2nc(-c3cc(C)nn3CC)ncc2c2cc(C(N)=O)cc(OCCC3CNC3)c21 [Example 4-AB, (E)-8-(2-(azetidin-3-yl)ethoxy)-9-(4-(6-carbamoyl-2-(1-ethyl-3-methyl-1H-pyrazole-5-carboxamido)-3H-imidazo[4,5-b]pyridin-3-yl)but-2-en-1-yl)-2-(1-ethyl-3-methyl-1H-pyrazol-5-yl)-9H-pyrimido[4,5-b]indole-6-carboxamide] | 30 | 1040
CCn1nc(C)cc1C(=O)Nc1nc2cc(C(N)=O)cnc2n1C/C=C/Cn1c2nc(-c3cc(C)nn3CC)ncc2c2cc(C(N)=O)cc(OCCCC3CN(C(=O)OC(C)(C)C)C3)c21 [Example 5-AA, tert-butyl (E)-3-(3-((6-carbamoyl-9-(4-(6-carbamoyl-2-(1-ethyl-3-methyl-1H-pyrazole-5-carboxamido)-3H-imidazo[4,5-b]pyridin-3-yl)but-2-en-1-yl)-2-(1-ethyl-3-methyl-1H-pyrazol-5-yl)-9H-pyrimido[4,5-b]indol-8-yl)oxy)propyl)azetidine-1-carboxylate] | 1.6 | 39
CCn1nc(C)cc1C(=O)Nc1nc2cc(C(N)=O)cnc2n1C/C=C/Cn1c2nc(-c3cc(C)nn3CC)ncc2c2cc(C(N)=O)cc(OCCCC3CNC3)c21 [Example 5-AB, (E)-8-(3-(azetidin-3-yl)propoxy)-9-(4-(6-carbamoyl-2-(1-ethyl-3-methyl-1H-pyrazole-5-carboxamido)-3H-imidazo[4,5-b]pyridin-3-yl)but-2-en-1-yl)-2-(1-ethyl-3-methyl-1H-pyrazol-5-yl)-9H-pyrimido[4,5-b]indole-6-carboxamide] | 27 | 862
CCn1nc(C)cc1C(=O)Nc1nc2cc(C(N)=O)cnc2n1C/C=C/Cn1c2nc(-c3cc(C)nn3CC)ncc2c2cc(C(N)=O)cc(OCCC3CCNCC3)c21 [Example 6-AB] | 29 | 674
CCn1nc(C)cc1C(=O)Nc1nc2cc(C(N)=O)cnc2n1C/C=C/Cn1c2nc(-c3cc(C)nn3CC)ncc2c2cc(C(N)=O)cc(OCCCC3CCN(C(=O)OC(C)(C)C)CC3)c21 [Example 7-AA, tert-butyl (E)-4-(3-((6-carbamoyl-9-(4-(6-carbamoyl-2-(1-ethyl-3-methyl-1H-pyrazole-5-carboxamido)-3H-imidazo[4,5-b]pyridin-3-yl)but-2-en-1-yl)-2-(1-ethyl-3-methyl-1H-pyrazol-5-yl)-9H-pyrimido[4,5-b]indol-8-yl)oxy)propyl)piperidine-1-carboxylate] | 1 | 28
CCn1nc(C)cc1C(=O)Nc1nc2cc(C(N)=O)cnc2n1C/C=C/Cn1c2nc(-c3cc(C)nn3CC)ncc2c2cc(C(N)=O)cc(OCCCC3CCNCC3)c21 [Example 7-AB] | 16 | 305
CCn1nc(C)cc1C(=O)Nc1nc2cc(C(N)=O)cnc2n1C/C=C/Cn1c2nc(-c3cc(C)nn3CC)ncc2c2cc(C(N)=O)cc(OCCC3CCN(C(=O)OC(C)(C)C)CC3)c21 [Example-6-AA, tert-butyl (E)-4-(2-((6-carbamoyl-9-(4-(6-carbamoyl-2-(1-ethyl-3-methyl-1H-pyrazole-5-carboxamido)-3H-imidazo[4,5-b]pyridin-3-yl)but-2-en-1-yl)-2-(1-ethyl-3-methyl-1H-pyrazol-5-yl)-9H-pyrimido[4,5-b]indol-8-yl)oxy)ethyl)piperidin-1-carboxylate] | 0.9 | 49
